Measured values reported in patent US20240409585A1, “MACROCYCLIC IMMUNOMODULATORS” (priority 2021, published 2024).
Numbered stars: 1 amine (or outer) side, 2 acyl side, 3 side chain; on linkers, the order of the positions; unused ones are H or OH. Bridge positions count the residues as written; N and C are the ends. Square brackets hold non-standard residues; d marks the D form. Peptide text beside a SMILES is read from it. * marks the point of attachment. Phe(3-CF3) = N[C@@H](Cc1cccc(C(F)(F)F)c1)C(=O)O; Ala(morpholin-4-yl) = N[C@@H](CN1CCOCC1)C(=O)O; Phe(4-COOH) = N[C@@H](Cc1ccc(C(=O)O)cc1)C(=O)O; Bip = N[C@@H](Cc1ccc(-c2ccccc2)cc1)C(=O)O; Abu(3R-NH2) = C[C@@H](N)[C@H](N)C(=O)O; Propanoyl(3,3,3-F3) = O=C(CC(F)(F)F)*; Glutaryl = O=C(CCCC(=O)[*:2])[*:1]; Val(3-OH) = CC(C)(O)[C@H](N)C(=O)O; hArg = N=C(N)NCCCC[C@H](N)C(=O)O; hPhe = N[C@@H](CCc1ccccc1)C(=O)O; Cha = N[C@@H](CC1CCCCC1)C(=O)O; Carboxymethyl = O=C(O)C*; NMeA = CN[C@@H](C)C(=O)O; Orn = NCCC[C@H](N)C(=O)O; Dab = NCC[C@H](N)C(=O)O; Dap = NC[C@H](N)C(=O)O; X9 = O=C(CCF)*

target: T1, Alexa fluor-647 labeled human PD-L1-Ig binding to Jurkat cell line over-expressing human PD-1 (Homo sapiens, UniProt Q15116); experiment: Jurkat-PD-1 Cell Binding High-Content Screening Assay (CBA): Method 3 (Alexa fluor-647 labeled PD-L1-Ig); conditions: Jurkat-PD-1 cells, Alexa fluor-647 labeled PD-L1-Ig 177 nM; head μM; read-out: CBA Method 3 μM
T1 construct: expressed in transfected cells; host or cells: Jurkat
Method in brief: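 Readout by high-content imaging of PFA-fixed, Hoechst-stained cells after 1 h with 177 nM (final) Alexa fluor-647 PD-L1-Ig. Compound was added first to hPD-1 Jurkat cells in RPMI plus 10% FCS for 2 h at 37 °C.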

T1 sequence (Q15116 25-288): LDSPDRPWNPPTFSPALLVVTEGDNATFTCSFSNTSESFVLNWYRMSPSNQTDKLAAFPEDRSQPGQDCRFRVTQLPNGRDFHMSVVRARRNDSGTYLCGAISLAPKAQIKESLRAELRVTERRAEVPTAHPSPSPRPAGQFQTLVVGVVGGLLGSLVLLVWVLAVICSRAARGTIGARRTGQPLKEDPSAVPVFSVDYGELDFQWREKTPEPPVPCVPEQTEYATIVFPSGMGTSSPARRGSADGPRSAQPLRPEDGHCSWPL

Row | SMILES | IC50
1 | CC(C)C[C@H]1NC(=O)[C@H](C)N(C)C(=O)[C@H](CCC(N)=O)NC(=O)[C@H](Cc2ccc(-c3ccccc3)cc2)NC(=O)[C@H](Cc2ccc(OCC(=O)O)cc2)NC(=O)[C@H](Cc2cccc(C(F)(F)F)c2)NC(=O)[C@H](CC(=O)O)NC(=O)[C@H](Cc2ccc(O)cc2)NC(=O)[C@H](CC2CCCCC2)NC(=O)CSC[C@@H](C(=O)N[C@@H](CCN)C(N)=O)NC(=O)[C@H](CCCN)NC(=O)[C@H](C(C)C)NC(=O)[C@H](CC2CCCCC2)NC(=O)[C@H](CCN)NC1=O [Example 5238] ({CH2CO}-[Cha]YD[Phe(3-CF3)]Y(Carboxymethyl)[Bip]Q[NMeA][dL][Dab][Cha]V[Orn]C[Dab]-NH2; thioether N-14) | 0.01 µM
2 | CC(C)C[C@H]1NC(=O)[C@H](C)N(C)C(=O)[C@H](CCC(N)=O)NC(=O)[C@H](Cc2ccc(-c3ccccc3)cc2)NC(=O)[C@H](CCc2ccccc2)NC(=O)[C@H](Cc2cccc(C(F)(F)F)c2)NC(=O)[C@H](CC(=O)O)NC(=O)[C@H](CCC(N)=O)NC(=O)[C@H](CC2CCCCC2)NC(=O)CSC[C@@H](C(=O)N[C@@H](CCN)C(N)=O)NC(=O)[C@H](CCCN)NC(=O)[C@H](C(C)C)NC(=O)[C@H](CC2CCCCC2)NC(=O)[C@H](CCN)NC1=O [Example 5246] ({CH2CO}-[Cha]QD[Phe(3-CF3)][hPhe][Bip]Q[NMeA][dL][Dab][Cha]V[Orn]C[Dab]-NH2; thioether N-14) | 0.42 µM

Now from value to molecule:

Row | IC50 | SMILES
3 | 0.1 µM | CC(C)C[C@H]1NC(=O)[C@H](C)N(C)C(=O)[C@H](Cc2ccc(C(=O)O)cc2)NC(=O)[C@H](Cc2ccc(-c3ccccc3)cc2)NC(=O)[C@H](CCc2ccccc2)NC(=O)[C@H](Cc2cccc(C(F)(F)F)c2)NC(=O)[C@H](CC(=O)O)NC(=O)[C@H](Cc2ccc(C(=O)O)cc2)NC(=O)[C@H](CN2CCOCC2)NC(=O)CSC[C@@H](C(=O)N[C@@H](CCN)C(N)=O)NC(=O)[C@H](CNC(=O)CC(F)(F)F)NC(=O)[C@H](C(C)C)NC(=O)[C@H](CC2CCCCC2)NC(=O)[C@H](CCN)NC1=O [Example 5232] ({CH2CO}-[Ala(morpholin-4-yl)][Phe(4-COOH)]D[Phe(3-CF3)][hPhe][Bip][Phe(4-COOH)][NMeA][dL][Dab][Cha]V[Dap](Propanoyl(3,3,3-F3))C[Dab]-NH2; thioether N-14)
4 | 0.02 µM | CC(C)C[C@H]1NC(=O)[C@H](C)N(C)C(=O)[C@H](Cc2ccc(C(=O)O)cc2)NC(=O)[C@H](Cc2ccc(-c3ccccc3)cc2)NC(=O)[C@H](Cc2ccc(C(=O)O)cc2)NC(=O)[C@H](Cc2cccc(C(F)(F)F)c2)NC(=O)[C@H](CC(=O)O)NC(=O)[C@H](Cc2ccc(C(=O)O)cc2)NC(=O)[C@H](CN2CCOCC2)NC(=O)CSC[C@@H](C(=O)N[C@@H](CCN)C(N)=O)NC(=O)[C@H](CNC(=O)CCF)NC(=O)[C@H](C(C)C)NC(=O)[C@H](CC2CCCCC2)NC(=O)[C@H](CCN)NC1=O [Example 5233] ({CH2CO}-[Ala(morpholin-4-yl)][Phe(4-COOH)]D[Phe(3-CF3)][Phe(4-COOH)][Bip][Phe(4-COOH)][NMeA][dL][Dab][Cha]V[Dap](X9)C[Dab]-NH2; thioether N-14)

same assay, conditions: Jurkat-PD-1 cells, Alexa fluor-647 labeled PD-L1-Ig 177 nM; nM; read-out: CBA Method 3

Row | SMILES | IC50
5 | CC(C)C[C@H]1NC(=O)[C@H](C)N(C)C(=O)[C@H](CCC(N)=O)NC(=O)[C@H](Cc2ccc(-c3ccccc3)cc2)NC(=O)[C@H](CCc2ccccc2)NC(=O)[C@H](Cc2cccc(C(F)(F)F)c2)NC(=O)[C@H](CC(=O)O)NC(=O)[C@H](Cc2ccc(O)cc2)NC(=O)[C@H](CC2CCCCC2)NC(=O)CSC[C@@H](C(=O)N[C@@H](CCN)C(N)=O)NC(=O)[C@H](CCC(N)=O)NC(=O)[C@H](C(C)C)NC(=O)[C@H](CC2CCCCC2)NC(=O)[C@H](CCN)NC1=O [Example 5241] ({CH2CO}-[Cha]YD[Phe(3-CF3)][hPhe][Bip]Q[NMeA][dL][Dab][Cha]VQC[Dab]-NH2; thioether N-14) | 0.0004 µM
6 | CC(C)C[C@H]1NC(=O)[C@H](C)N(C)C(=O)[C@H](CCC(N)=O)NC(=O)[C@H](Cc2ccc(-c3ccccc3)cc2)NC(=O)[C@H](CCc2ccccc2)NC(=O)[C@H](Cc2cccc(C(F)(F)F)c2)NC(=O)[C@H](CC(=O)O)NC(=O)[C@H](Cc2ccc(O)cc2)NC(=O)[C@H]([C@@H](C)N)NC(=O)CSC[C@@H](C(=O)N[C@@H](CCN)C(N)=O)NC(=O)[C@H](CCC(N)=O)NC(=O)[C@H](C(C)C)NC(=O)[C@H](CC2CCCCC2)NC(=O)[C@H](CCN)NC1=O [Example 5242] ({CH2CO}-[Abu(3R-NH2)]YD[Phe(3-CF3)][hPhe][Bip]Q[NMeA][dL][Dab][Cha]VQC[Dab]-NH2; thioether N-14) | 0.0021 µM
7 | CC(C)C[C@H]1NC(=O)[C@H](C)N(C)C(=O)[C@H](CCC(N)=O)NC(=O)[C@H](Cc2ccc(-c3ccccc3)cc2)NC(=O)[C@H](CCc2ccccc2)NC(=O)[C@H](Cc2cccc(C(F)(F)F)c2)NC(=O)[C@H](CC(=O)O)NC(=O)[C@H](CCC(N)=O)NC(=O)[C@H]([C@@H](C)N)NC(=O)CSC[C@@H](C(=O)N[C@@H](CCN)C(N)=O)NC(=O)[C@H](CCCN)NC(=O)[C@H](C(C)C)NC(=O)[C@H](CC2CCCCC2)NC(=O)[C@H](CCN)NC1=O [Example 5247] ({CH2CO}-[Abu(3R-NH2)]QD[Phe(3-CF3)][hPhe][Bip]Q[NMeA][dL][Dab][Cha]V[Orn]C[Dab]-NH2; thioether N-14) | 0.0017 µM
8 | CC(C)C[C@H]1NC(=O)[C@H](C)N(C)C(=O)[C@H](CCC(N)=O)NC(=O)[C@H](Cc2ccc(-c3ccccc3)cc2)NC(=O)[C@H](Cc2ccc(OCC(=O)O)cc2)NC(=O)[C@H](Cc2cccc(C(F)(F)F)c2)NC(=O)[C@H](CC(=O)O)NC(=O)[C@H](CCC(N)=O)NC(=O)[C@H](CC2CCCCC2)NC(=O)CSC[C@@H](C(=O)N[C@@H](CCN)C(N)=O)NC(=O)[C@H](CCCN)NC(=O)[C@H](C(C)C)NC(=O)[C@H](CC2CCCCC2)NC(=O)[C@H](CCN)NC1=O [Example 5248] ({CH2CO}-[Cha]QD[Phe(3-CF3)]Y(Carboxymethyl)[Bip]Q[NMeA][dL][Dab][Cha]V[Orn]C[Dab]-NH2; thioether N-14) | 0.0006 µM
9 | CC(C)C[C@H]1NC(=O)[C@H](C)N(C)C(=O)[C@H](CCC(N)=O)NC(=O)[C@H](Cc2ccc(-c3ccccc3)cc2)NC(=O)[C@H](Cc2ccc(OCC(=O)O)cc2)NC(=O)[C@H](Cc2cccc(C(F)(F)F)c2)NC(=O)[C@H](CC(=O)O)NC(=O)[C@H](CCC(N)=O)NC(=O)[C@H]([C@@H](C)N)NC(=O)CSC[C@@H](C(=O)N[C@@H](CCN)C(N)=O)NC(=O)[C@H](CCCN)NC(=O)[C@H](C(C)C)NC(=O)[C@H](CC2CCCCC2)NC(=O)[C@H](CCN)NC1=O [Example 5249] ({CH2CO}-[Abu(3R-NH2)]QD[Phe(3-CF3)]Y(Carboxymethyl)[Bip]Q[NMeA][dL][Dab][Cha]V[Orn]C[Dab]-NH2; thioether N-14) | 0.0019 µM
10 | CC(C)C[C@H]1NC(=O)[C@H](C)N(C)C(=O)[C@H](Cc2ccc(C(=O)O)cc2)NC(=O)[C@H](Cc2ccc(-c3ccccc3)cc2)NC(=O)[C@H](Cn2cc(C3CC3)nn2)NC(=O)[C@H](Cc2cccc(C(F)(F)F)c2)NC(=O)[C@H](CC(=O)O)NC(=O)[C@H](Cc2ccc(C(=O)O)cc2)NC(=O)[C@H]([C@@H](C)N)NC(=O)CSC[C@@H](C(=O)N[C@@H](CCN)C(N)=O)NC(=O)[C@H](CCC(=O)O)NC(=O)[C@H](C(C)C)NC(=O)[C@H](CC2CCCCC2)NC(=O)[C@H](CCN)NC1=O [Example 5251] | 0.0016 µM

More lines, now with the values ahead:

Row | IC50 | SMILES
11 | 0.0034 µM | CC(C)C[C@H]1NC(=O)[C@H](C)N(C)C(=O)[C@H](Cc2ccc(C(=O)O)cc2)NC(=O)[C@H](Cc2ccc(-c3ccccc3)cc2)NC(=O)[C@H](Cc2ccc(C(=O)O)cc2)NC(=O)[C@H](Cc2cccc(C(F)(F)F)c2)NC(=O)[C@H](CC(=O)O)NC(=O)[C@H](Cc2ccc(C(=O)O)cc2)NC(=O)[C@H](CN2CCOCC2)NC(=O)CSC[C@@H](C(=O)N[C@@H](CCN)C(N)=O)NC(=O)[C@H](CNC(=O)CCCC(=O)O)NC(=O)[C@H](C(C)C)NC(=O)[C@H](CC2CCCCC2)NC(=O)[C@H](CCN)NC1=O [Example 5234] ({CH2CO}-[Ala(morpholin-4-yl)][Phe(4-COOH)]D[Phe(3-CF3)][Phe(4-COOH)][Bip][Phe(4-COOH)][NMeA][dL][Dab][Cha]V[Dap](Glutaryl)C[Dab]-NH2; thioether N-14)
12 | 0.0044 µM | CC(C)C[C@H]1NC(=O)[C@H](C)N(C)C(=O)[C@H](CCC(N)=O)NC(=O)[C@H](Cc2ccc(-c3ccccc3)cc2)NC(=O)[C@H](CCc2ccccc2)NC(=O)[C@H](Cc2cccc(C(F)(F)F)c2)NC(=O)[C@H](CC(=O)O)NC(=O)[C@H](Cc2ccc(O)cc2)NC(=O)[C@H](CN2CCOCC2)NC(=O)CSC[C@@H](C(=O)N[C@@H](CCN)C(N)=O)NC(=O)[C@H](CCC(N)=O)NC(=O)[C@H](C(C)C)NC(=O)[C@H](CC2CCCCC2)NC(=O)[C@H](CCN)NC1=O [Example 5240] ({CH2CO}-[Ala(morpholin-4-yl)]YD[Phe(3-CF3)][hPhe][Bip]Q[NMeA][dL][Dab][Cha]VQC[Dab]-NH2; thioether N-14)
13 | 0.0014 µM | CC(C)C[C@H]1NC(=O)[C@H](C)N(C)C(=O)[C@H](Cc2ccc(OCC(=O)O)cc2)NC(=O)[C@H](Cc2ccc(-c3ccccc3)cc2)NC(=O)[C@H](Cn2cc(C3CC3)nn2)NC(=O)[C@H](Cc2cccc(C(F)(F)F)c2)NC(=O)[C@H](CC(=O)O)NC(=O)[C@H](Cc2ccc(C(=O)O)cc2)NC(=O)[C@H](CN2CCOCC2)NC(=O)CSC[C@@H](C(=O)N[C@@H](CCN)C(N)=O)NC(=O)[C@H](CCC(N)=O)NC(=O)[C@H](C(C)C)NC(=O)[C@H](CC2CCCCC2)NC(=O)[C@H](CCN)NC1=O [Example 5250]
14 | 0.0012 µM | CC(C)C[C@H]1NC(=O)[C@H](C)N(C)C(=O)[C@H](Cc2ccc(C(=O)O)cc2)NC(=O)[C@H](Cc2ccc(-c3ccccc3)cc2)NC(=O)[C@H](CCc2ccccc2)NC(=O)[C@H](Cc2cccc(C(F)(F)F)c2)NC(=O)[C@H](CC(=O)O)NC(=O)[C@H](Cc2ccc(C(=O)O)cc2)NC(=O)[C@H](CCCCNC(=N)N)NC(=O)CSC[C@@H](C(=O)N[C@@H](CCN)C(N)=O)NC(=O)[C@H](CO)NC(=O)[C@H](C(C)(C)O)NC(=O)[C@H](CC2CCCCC2)NC(=O)[C@H](CCN)NC1=O [Example 5252] ({CH2CO}-[hArg][Phe(4-COOH)]D[Phe(3-CF3)][hPhe][Bip][Phe(4-COOH)][NMeA][dL][Dab][Cha][Val(3-OH)]SC[Dab]-NH2; thioether N-14)
